Melting point data for nine molecules are collected here from patent US7151191B2, “Compounds and compositions for delivering active agents” (Emisphere Technologies, Inc., priority 2000, dated 2006).

A word on the melting point: it is the temperature, or range, at which the solid turns liquid. `COc1ccccc1C(=O)Nc1ccc(OCCC(=O)O)cc1` [Compound 9]: the melting point lay in the range of 154 to 158 °C.

Molecule `O=C(O)COc1ccc(CCCNC(=O)c2ccccc2O)cc1` [Compound 10] had a melting point of 124 to 126.5 °C.

Take `O=C(O)CCCCOc1ccccc1NC(=O)c1ccccc1O` [Compound 5]: the melting point lay in the range of 147 to 149 °C.

The molecule `O=C(O)CCCCCCCOc1ccc(Cl)cc1NC(=O)c1ccccc1O` [Compound 1, 8-[(N-Salicyloyl-2-amino-4-chloro)phenoxyl]octanoic acid] yielded a melting point of 152 to 153 °C.

In the case of `O=C(O)CCCCOc1ccc(Cl)cc1NC(=O)c1ccccc1O` [Compound 2], the melting point fell in the range of 166 to 169 °C.

In turn, `O=C(O)CCCCCCCOc1ccccc1NC(=O)c1ccccc1O` [Compound 4] registered a melting point of 122 to 124 °C.

In turn, `COc1cccc(C(=O)Nc2ccc(OCCC(=O)O)cc2)c1OC` [Compound 7] gave a melting point of 135 to 137 °C.

`O=C(O)CCOc1ccc(NC(=O)c2ccccc2O)cc1` [Compound 8, 3-(4-salicyloylamino)phenoxy propionic acid] returned a melting point of 165 to 167 °C.

As for `O=C(O)CCCOc1ccc(Cl)cc1NC(=O)c1ccccc1O` [Compound 3], the melting point lay in the range of 231 to 234 °C.
